Test results published in ChEMBL document CHEMBL6096728, “Simultaneous Induction of Immunogenic Pyroptosis and PD-L1 Downregulation by One Single Photosensitizer for Synergistic Cancer Photoimmunotherapy” (J Med Chem, 2025).
The source made the active and inactive calls. The rule behind the calls is not given here.

How the values were obtained:
[1] = Drug uptake in mouse 4T1 cells assessed as increase in fluorescence intensity at 2.5 uM measured after 180 mins by flow cytometry analysis; type: ADME, cell-based; details: 4t1, 3 h
[2] = test system: MDA-MB-231; assay: Induction of intracellular ROS generation in human MDA-MB-231 cells assessed as increase in fluorescence intensity at 0.1 uM preincubated for 2 hrs followed by compound washout further incubated with DCFH-DA probe for 30 mins under light irradiation of 20 mW.cm/2 at 400 to 700nm measured after 10 mins by flow cytometry analysis; type: functional, cell-based
[3] = test system: 4T1; assay: Cytotoxicity against mouse 4T1 cells at 0.01 to 10 uM incubated for 2 hrs under dark condition by CCK-8 method; type: functional, cell-based; details: dose 0.01-10 µM
[4] = Phototoxicity against human MDA-MB-231 cells preincubated for 2 hrs followed by light irradiation of 20 mW.cm/2 at 400 at 700nm for 24 hrs by CCK-8 method; type: functional, cell-based; details: MDA-MB-231, light or radiation study
[5] = Phototoxicity against mouse 4T1 cells preincubated for 2 hrs followed by light irradiation of 20 mW.cm/2 at 400 at 700nm for 24 hrs by CCK-8 method; type: functional, cell-based; details: 4T1, light or radiation study
[6] = test system: MDA-MB-231; assay: Induction of cell death in human MDA-MB-231 cells assessed as decrease in green fluorescence at 0.5 uM incubated for 24 hrs followed by light irradiation of 20 mW.cm/2 at 400 to 700nm for 10 mins by Calcein-AM/PI staining based analysis; type: functional
[7] = test system: 4T1; assay: Induction of cell death in mouse 4T1 cells assessed as increase in red fluorescence at 0.5 uM incubated for 24 hrs followed by light irradiation of 20 mW.cm/2 at 400 to 700nm for 10 mins by Calcein-AM/PI staining based analysis; type: functional
[8] = test system: MDA-MB-231; assay: Inhibition of human MDA-MB-231 cells at 0.1 uM under light irradiation of 20 mW.cm/2 at 400 to 700nm measured after 14 days by crystal violet staining based assay; type: functional, cell-based; details: time 14.0 day
[9] = test system: MDA-MB-231; assay: Induction of pyroptosis in human MDA-MB-231 cells assessed as cell swelling at 0.5 uM preincubated with compound for 4 hrs followed by light irradiation of 20 mW.cm/2 at 400 to 700nm for 10 mins by confocal fluorescence microscopy analysis; type: functional, cell-based
[10] = test system: MDA-MB-231; assay: Induction of pyroptosis in human MDA-MB-231 cells assessed as upregulation of caspase-3 expression level at 0.1 to 0.5 uM incubated with compound for 12 hrs under dark condition by Western blot analysis; type: functional, cell-based; details: dose 0.1-0.5 µM
[11] = test system: MDA-MB-231; assay: Induction of pyroptosis in human MDA-MB-231 cells assessed as increase in LDH release at 0.1 to 0.5 uM incubated for 12 hrs under light irradiation of 20 mW.cm/2 at 400 to 700nm for 10 mins; type: functional, cell-based; details: dose 0.1-0.5 µM
[12] = test system: MDA-MB-231; assay: Induction of pyroptosis mediated immunogenic cell death in human MDA-MB-231 cells assessed as increase in HMGB1 release at 0.5 uM incubated for 12 hrs under light irradiation of 20 mW.cm/2 at 400 to 700nm for 10 mins; type: functional, cell-based
[13] = test system: MDA-MB-231; assay: Photocytotoxicity in human MDA-MB-231 cells assessed as reduction in 3D multicellular spheroids diameter at 0.5 to 1 uM incubated for 24 hrs under light irradiation of 50 mW.cm/2 at 400 to 700nm measured after 10 mins in hypoxia condition; type: functional, cell-based; details: dose 0.5-1 µM
[14] = Drug accumulation in BALB/c mouse tumor implanted with mouse 4T1 cells assessed as increase in fluorescence intensity at 25 mg/kg, iv measured after 0 to 3 hrs by imaging based analysis; type: ADME, organism-based, Neoplasm; details: in vivo, time 0-3 hrs
[15] = Drug accumulation in BALB/c mouse tumor implanted with mouse 4T1 cells assessed as increase in fluorescence intensity at 25 mg/kg, iv measured after 3 hrs by imaging based analysis; type: ADME, organism-based, Neoplasm; details: in vivo
[16] = Drug accumulation in BALB/c mouse tumor implanted with mouse 4T1 cells assessed as increase in fluorescence intensity at 25 mg/kg, iv measured after 12 hrs by imaging based analysis; type: ADME, organism-based, Neoplasm; details: in vivo
[17] = Toxicity in BALB/c mouse assessed as effect on tumor at 25 mg/kg, iv measured after 14 days by H and E staining based analysis; type: organism-based; details: in vivo, 336 h, time 14 day
[18] = Toxicity in BALB/c mouse assessed as effect on heart at 25 mg/kg, iv measured after 14 days by H and E staining based analysis; type: organism-based; details: in vivo, 336 h, time 14 day
[19] = Toxicity in BALB/c mouse assessed as effect on tumor at 25 mg/kg, iv measured after 14 days under light irradiation of 300 mW.cm/2 at 400 to 700nm measured after 5 mins by H and E staining based analysis; type: organism-based; details: in vivo, 336 h, 0.7 µM, time 14 day
[20] = Toxicity in BALB/c mouse assessed as effect on heart at 25 mg/kg, iv measured after 14 days under light irradiation of 300 mW.cm/2 at 400 to 700nm measured after 5 mins by H and E staining based analysis; type: organism-based; details: in vivo, 336 h, 0.7 µM, time 14 day
[21] = Toxicity in BALB/c mouse assessed as effect on platelets at 25 mg/kg, iv measured after 14 days; type: organism-based; details: in vivo, 336 h, time 14 day
[22] = Toxicity in BALB/c mouse assessed as effect on WBC at 25 mg/kg, iv measured after 14 days under light irradiation of 300 mW.cm/2 at 400 to 700nm measured after 5 mins; type: organism-based; details: in vivo, 336 h, time 14 day
[23] = Toxicity in BALB/c mouse assessed as effect on platelets at 25 mg/kg, iv measured after 14 days under light irradiation of 300 mW.cm/2 at 400 to 700nm measured after 5 mins; type: organism-based; details: in vivo, 336 h, 0.7 µM, time 14 day
[24] = test system: 4T1; assay: Antitumor immunity against mouse 4T1 cells implanted in BALB/c mouse model assessed as upregulation of proportion of dendritic cells in lymph node at 25 mg/kg, iv measured after 14 days under light irradiation of 300 mW.cm/2 at 400 to 700nm measured after 5 mins by flow cytometry analysis; type: functional, organism-based; details: time 14.0 day
[25] = test system: 4T1; assay: Antitumor immunity against mouse 4T1 cells implanted in BALB/c mouse model assessed as increase in IL1beta secretion in tumors at 25 mg/kg, iv measured after 14 days under light irradiation of 300 mW.cm/2 at 400 to 700nm measured after 5 mins by ELISA method; type: functional, organism-based; details: time 14.0 day
[26] = test system: 4T1; assay: Antitumor immunity against mouse 4T1 cells implanted in BALB/c mouse model assessed as increase in IL-6 secretion in tumors at 25 mg/kg, iv measured after 14 days under light irradiation of 300 mW.cm/2 at 400 to 700nm measured after 5 mins by ELISA method; type: functional, organism-based; details: time 14.0 day
[27] = test system: 4T1; assay: Antitumor immunity against mouse 4T1 cells implanted in BALB/c mouse model assessed as fold increase in CD8+ T cells in spleen at 25 mg/kg, iv measured after 14 days under light irradiation of 300 mW.cm/2 at 400 to 700nm measured after 5 mins […]; type: functional; details: time 14 day
[28] = test system: 4T1; assay: Antitumor immunity against mouse 4T1 cells implanted in BALB/c mouse model assessed as increase of CD4+ T cells in lymph node at 25 mg/kg, iv measured after 14 days under light irradiation of 300 mW.cm/2 at 400 to 700nm measured after 5 mins […]; type: functional, organism-based; details: time 14.0 day

O=c1cc2sc3cc(N4CCNCC4)ccc3nc-2c2ccccc12
Drug uptake [1]: Active | Activity [2]: Active | Activity [3]: Active; Compound Showed Low Toxicity | IC50 [4]: 164 nM | IC50 [5]: 403 nM | Activity [6]: Active | Activity [7]: Active | inhibition [8]: Active | Activity [9]: Active | Activity [10]: Active; Compound Showed Negligible Changes | Activity [11]: Active | Activity [12]: Active | Activity [13]: Active | Drug uptake [14]: Active | Drug uptake [15]: Active | Drug uptake [16]: Active | Activity [17]: Toxic | Activity [18]: Non-toxic | Activity [19]: Toxic | Activity [20]: Non-toxic | Activity [21]: Non-toxic | Activity [22]: Non-toxic | Activity [23]: Non-toxic | Activity [24]: Active | Activity [25]: Active | Activity [26]: Active | fold change (FC) [27]: 6.3 | Activity [28]: Active
